The numbers were not newly measured in paper PMC12802961 (Journal of Antimicrobial Chemotherapy, 2025), which cites them from elsewhere.

Read-outs that look alike come from different tables or passages of the source.

For this data set the following is noted: cited from earlier work.

With `C[C@]1(Cn2ccnn2)[C@H](C(=O)O)N2C(=O)C[C@H]2S1(=O)=O` [tazobactam], for the setting “ceftolozane/tazobactam”, the “Ct (threshold concentration)” value was 0.5 mg/L.

In the case of `NC(=O)[C@@H]1CC[C@@H]2CN1C(=O)N2OS(=O)(=O)O` [avibactam], under “ceftazidime/avibactam”, the “Ct (threshold concentration)” value was 1 mg/L.
